Test results as given in US7718611B2, “Cyclic nonapeptide amides” (priority 2004, dated 2010).
Converted amounts (≈) assume the structure as drawn. Like-named read-outs stand apart in the source and are kept apart here. Starred links: 1 amine or outer side, 2 acyl side, 3 side chain; linkers in the order of their positions; H or OH if unused. Positions of bridges follow the written chain, without caps; N, C: chain ends. Non-standard residues stand in square brackets, D forms with d. Residues, ends and D or L forms follow the SMILES beside them. Phe(3R-OH) = O=C([C@@H](N[*:1])[C@H](O[*:3])c1ccccc1)[*:2]; Phe(βR-NH) = O=C([C@@H](N[*:1])[C@H](N[*:3])c1ccccc1)[*:2]; X2 = O=C([C@H](Cc1ccc(C(F)(F)F)nc1)N[*:1])[*:2]; Asn(3S-OH) = NC(=O)[C@@H](O)[C@H](N)C(=O)O; Leu(3R-OH) = CC(C)[C@@H](O)[C@H](N)C(=O)O; X1 = Cc1cccc(C[C@H](N[*:1])C(=O)[*:2])n1; dAla(TMS) = C[Si](C)(C)C[C@@H](N)C(=O)O; d(tBuAla) = CC(C)(C)C[C@@H](N)C(=O)O; tBuAla = CC(C)(C)C[C@H](N)C(=O)O; 3Pal = N[C@@H](Cc1cccnc1)C(=O)O; aThr = C[C@H](O)[C@H](N)C(=O)O

Assays:
E. faecalis ICB 27159 = type: cell-based, Entercococcus faecalis
Method: (§1) Determination of the Minimum Inhibitory Concentration (MIC):
(§2) The MIC is determined in the liquid dilution test in accordance with the NCCLS guidelines. Overnight cultures of Staphylococcus aureus 133, Entercococcus faecalis 27159, E. faecium and Streptococcus pneumoniae G9a are incubated with the described test substances in a 1:2 dilution series. The MIC determination is carried out with a cell count of 10^5 microorganisms per ml in Isosensitest medium (Difco, Irvine/USA), with the exception of S. pneumoniae which is tested in BHI broth (Difco, Irvine/USA) with 10% bovine serum at a cell count of 10^6 microorganisms per ml. The cultures are incubated at 37° C. for 18-24 hours, S. pneumoniae in the presence of 10% CO2.
(§3) The lowest substance concentration in each case at which visible bacterial growth […] is defined as the MIC. The MIC values are reported in μg/ml.

[1] = test system: Streptococcus pneumoniae G9a; type: cell-based
Method: as §1, §2, §3

[2] = test system: Staphylococcus aureus 133; type: cell-based
Method: as §1, §2, §3

E. faecium L4001 = type: cell-based
Method: as §1, §2, §3

[3] = Isosensitest medium, 10^5 microorganisms per ml, 37° C., 18-24 hours
[4] = BHI broth with 10% bovine serum, 10^6 microorganisms per ml, 37° C., 18-24 hours, 10% CO2

MIC E. faecium L4001 (E. faecium L4001; L4001) [µg/mL]	SMILES	MIC E. faecalis ICB 27159 (E. faecalis ICB 27159; [3]) [µg/mL]	MIC S. pneumoniae G9a [1, 4] [µg/mL]	MIC S. aureus 133 [2, 3] [µg/mL]	MIC E. faecium L4001 (E. faecium L4001; [3]) [µg/mL]	MIC E. faecalis ICB 27159 (E. faecalis ICB 27159; ICB 27159) [µg/mL]	MIC S. pneumoniae G9a ([1]; G9a) [µg/mL]	MIC S. aureus 133 [2]; 133 [µg/mL]
	CC[C@H](C)[C@@H]1NC(=O)[C@@H](CCCNC(=N)N)NC(=O)[C@H](CC(C)C)NC(=O)[C@H]([C@H](O)C(C)C)NC(=O)[C@@H](NC(=O)[C@H](CC(C)(C)C)NC(=O)[C@H](N)CC(C)(C)C)[C@@H](c2ccccc2)NC(=O)[C@H](CO)NC(=O)[C@H]([C@H](O)C(N)=O)NC(=O)CNC(=O)[C@H]([C@H](C)O)NC1=O [Example 1, [3-tert-Butyl-D-alanyl]-[3-tert-butyl-L-alanyl]-[(3R)-3-amino-L-phenylalanyl)]-[(3R)-3-hydroxy-L-leucyl]-L-leucyl-D-arginyl-L-isoleucyl-L-allothreonyl-glycyl-[(3S)-3-hydroxy-L-asparaginyl]-L-serine C^1.11—N^3.3-lactam bistrifluoroacetate] (H-[d(tBuAla)][tBuAla][Phe(βR-NH)][Leu(3R-OH)]L[dR]I[aThr]G[Asn(3S-OH)]S; lactam 3-C)	0.25 (≈ 0.192 µM)	0.063 (≈ 0.0483 µM)	0.5 (≈ 0.384 µM)	0.25 (≈ 0.192 µM)			
0.5 (≈ 0.392 µM)	CC[C@H](C)[C@@H]1NC(=O)[C@@H](CCCNC(=N)N)NC(=O)[C@H](CC(C)C)NC(=O)[C@H]([C@H](O)C(C)C)NC(=O)[C@@H](NC(=O)[C@H](CC(C)C)NC(=O)[C@H](N)CC(C)C)[C@@H](c2ccccc2)OC(=O)[C@H](CO)NC(=O)[C@H]([C@H](O)C(N)=O)NC(=O)CNC(=O)[C@H]([C@H](C)O)NC1=O [Example 1A, reference compound] (H-[dL]L[Phe(3R-OH)][Leu(3R-OH)]L[dR]I[aThr]G[Asn(3S-OH)]S; ester 3-C)					0.5 (≈ 0.392 µM)	0.063 (≈ 0.0494 µM)	0.5 (≈ 0.392 µM)
	CC[C@H](C)[C@@H]1NC(=O)[C@@H](CCCNC(=N)N)NC(=O)[C@H](CC(C)C)NC(=O)[C@H]([C@H](O)C(C)C)NC(=O)[C@@H](NC(=O)[C@H](Cc2cccnc2)NC(=O)[C@H](N)C[Si](C)(C)C)[C@@H](c2ccccc2)NC(=O)[C@H](CO)NC(=O)[C@H]([C@H](O)C(N)=O)NC(=O)CNC(=O)[C@H]([C@H](C)O)NC1=O.O=C(O)C(F)(F)F.O=C(O)C(F)(F)F.O=C(O)C(F)(F)F [Example 3] (H-[dAla(TMS)][3Pal][Phe(βR-NH)][Leu(3R-OH)]L[dR]I[aThr]G[Asn(3S-OH)]S; lactam 3-C)	2	0.25	0.125				
	CC[C@H](C)[C@@H]1NC(=O)[C@@H](CCCNC(=N)N)NC(=O)[C@H](CC(C)C)NC(=O)[C@H]([C@H](O)C(C)C)NC(=O)[C@@H](NC(=O)[C@H](Cc2cccc(C)n2)NC(=O)[C@H](N)CC(C)(C)C)[C@@H](c2ccccc2)NC(=O)[C@H](CO)NC(=O)[C@H]([C@H](O)C(N)=O)NC(=O)CNC(=O)[C@H]([C@H](C)O)NC1=O.O=C(O)C(F)(F)F.O=C(O)C(F)(F)F.O=C(O)C(F)(F)F [Example 6] (H-[d(tBuAla)][X1][Phe(βR-NH)][Leu(3R-OH)]L[dR]I[aThr]G[Asn(3S-OH)]S; lactam 3-C)					0.5	0.25	0.25
	CC[C@H](C)[C@@H]1NC(=O)[C@@H](CCCNC(=N)N)NC(=O)[C@H](CC(C)C)NC(=O)[C@H]([C@H](O)C(C)C)NC(=O)[C@@H](NC(=O)[C@H](Cc2ccc(C(F)(F)F)nc2)NC(=O)[C@H](N)CC(C)(C)C)[C@@H](c2ccccc2)NC(=O)[C@H](CO)NC(=O)[C@H]([C@H](O)C(N)=O)NC(=O)CNC(=O)[C@H]([C@H](C)O)NC1=O.O=C(O)C(F)(F)F.O=C(O)C(F)(F)F [Example 7] (H-[d(tBuAla)][X2][Phe(βR-NH)][Leu(3R-OH)]L[dR]I[aThr]G[Asn(3S-OH)]S; lactam 3-C)					0.25	0.125	0.125
	CC[C@H](C)[C@@H]1NC(=O)[C@@H](CCCNC(=N)N)NC(=O)[C@H](CC(C)C)NC(=O)[C@H]([C@H](O)C(C)C)NC(=O)[C@@H](NC(=O)[C@H](CC(C)(C)C)NC(=O)[C@H](N)CC(C)C)[C@@H](c2ccccc2)NC(=O)[C@H](CO)NC(=O)[C@H]([C@H](O)C(N)=O)NC(=O)CNC(=O)[C@H]([C@H](C)O)NC1=O.O=C(O)C(F)(F)F.O=C(O)C(F)(F)F [Example 9] (H-[dL][tBuAla][Phe(βR-NH)][Leu(3R-OH)]L[dR]I[aThr]G[Asn(3S-OH)]S; lactam 3-C)					0.5	0.125	0.25
